Measured values: patent US5317019A, “Inhibition of interleukin-1 and tumor necrosis factor production by monocytes and/or macrophages” (priority 1991, dated 1994)
pIC50: −log10 of the molar value. Like-named read-outs stand apart in the source and are kept apart here.

System: IL-1 production by human monocytes
Experiment: In vitro IL-1 production by LPS-stimulated human monocytes
Type: cell-based
Experimental: Bacterial lipopolysaccharide (LPS) was used to induce IL-1 production by human peripheral blood monocytes. IL-1 activity was measured by its ability to stimulate a Interleukin 2 (IL-2) producing cell line […] to secrete IL-2, in concert with A23187 ionophore, according to the method of Simon et al., J. Immunol. […] The cells were allowed to adhere for 2 hours, after which time non-adherent cells were removed by gentle washing. […] At the end of the incubation period, culture supernatants were removed and clarified of cells and all debris.

[1] = Table 3, read-out: IC50, inhibition of IL-1 production by LPS stimulated monocytes in vitro
[2] = Homo sapiens, Monocyte, Table 1, LPS 50 ng/ml, 24 h, read-out: IC50, effect on LPS-stimulated IL-1 production by human monocytes
[3] = Homo sapiens, Monocyte, Table 3, read-out: IC50, inhibition of IL-1 production by LPS stimulated monocytes in vitro

Compound | pIC50 [2] | pIC50 [3] | also measured
2-(Acetyl-thio-phenyl)-3-(4-pyridyl)-6,7-dihydro[5H]-pyrrolo-[1,2-a]-imidazole [Compound 20] |  |  | pIC50 [1]: < 5.00
2-[Trimethylacetyl(thiophenyl)]-3-(4-pyridyl)-6,7-dihydro[5H]pyrrolo-[1,2-a]-imidazole [Compound 16] |  |  | pIC50 [1]: < 5.00
COc1ccc(-c2nc3ccccn3c2-c2ccncc2)cc1 [Compound 7, 2-(4-methoxyphenyl)-3-(4-pyridyl)-imidazo-[1,2-a]-pyridine] | 6.00 |  | 
c1cc(-c2nc3n(c2-c2ccc4c(c2)OCO4)CCS3)ccn1 [Compound 8, 5-(3,4-(methylenedioxy)phenyl)-6-(4-pyridyl)-2,3-dihydroimidazo-[2-1-b]-thiazole] | 5.00 |  | 
COc1ccc(-c2nc3n(c2-c2ccnc(C)c2)CCC3)cc1 [Compound 9, 2-(4-methoxyphenyl)-3-(4-(2-methyl)pyridyl)-6,7-dihydro-[5H]-pyrrolo-[1,2-a]-imidazole] | 6.15 |  | 
CSc1ccc(-c2nc3n(c2-c2ccncc2)CCS3)cc1 [Compound 11, 6-(4-methylthiophenyl)-5-(4-pyridyl)-2,3-dihydro-imidazo-[2,1-b]-thiazole] | 5.74 |  | 
CSc1ccc(-c2c(-c3ccncc3)nc3n2CCS3)cc1 [Compound 12, 5-(4-methylthiophenyl)-6-(4-pyridyl)-2,3-dihydro-imidazo-[2,1-b]-thiazole] | 5.74 |  | 
CSc1ccc(-c2c(-c3ccncc3)nc3n2CCC3)cc1 [Compound 13, 3-(4-methylthiophenyl)-2-(4-pyridyl)-6,7-dihydro-[5H]-pyrrolo-[1,2-a]-imidazole] | 5.70 |  | 
CCCSc1ccc(-c2nc3n(c2-c2ccncc2)CCC3)cc1 [Compound 14, 2-(4-propylthiophenyl)-3-(4-pyridyl)-6,7-dihydro-[5H]-pyrrolo-[1,2-a]-imidazole] | < 5.00 |  | 
CCc1cc(-c2c(-c3ccc(SC)cc3)nc3n2CCC3)ccn1 [Compound 15, 2-(4-methylthiophenyl)-3-(4-(2-ethyl)pyridyl)-6,7-dihydro-[5H]-pyrrolo-[1,2-a-]-imidazole] | 5.89 |  | 
CC(C)Oc1ccc(-c2nc3n(c2-c2ccncc2)CCC3)cc1 [Compound 17, 2-(4-(2-Propoxy)phenyl)-3-(4-pyridyl)-6,7-dihydro-[5H]-pyrrolo-[1,2-a]-imidazole] |  | < 5.00 | 
CCOc1ccc(-c2nc3n(c2-c2ccncc2)CCC3)cc1 [Compound 18, 2-(4-(1-Ethoxy)phenyl)-3-(4-pyridyl)-6,7-dihydro[5H]pyrrolo-[1,2-a]-imidazole] |  | 5.00 | 
CCCOc1ccc(-c2nc3n(c2-c2ccncc2)CCC3)cc1 [Compound 19, 2-(4-(1-Propoxy)phenyl)-3-(4-pyridyl)-6,7-dihydro[5H]pyrrolo-[1,2-a]-imidazole] |  | < 5.00 | 
COc1ccc(-c2c(-c3ccncc3)n3c([n+]2C)CCC3)cc1 [Compound 21, 2-(4-Methoxyphenyl)-3-(4-pyridyl)-6,7-dihydro-[5H]-pyrrolo-[1,2-a]-N-methylimidazole, monomethylsulfate] |  |  | pIC50 [1]: < 5.00
c1ccc(-c2nc3n(c2-c2ccncc2)CCC3)cc1 [Compound 22, 2-Phenyl-3-(4-pyridyl)-6,7-dihydro-[5H]-pyrrolo-[1,2-a]imidazole] |  | 6.30 | 
c1cc(-c2c(-c3ccc(SSc4ccc(-c5nc6n(c5-c5ccncc5)CCC6)cc4)cc3)nc3n2CCC3)ccn1 [Compound 23, 2-(4-Mercaptophenyl)-3-(4-pyridyl)-6,7-dihydro-[5H]-pyrrolo-[1,2-a]-imidazole disulfide] |  | 5.23 | 
COc1ccc(-c2nc3n(c2-c2ccncc2)CCS3)cc1 [Compound 25, 6-(4-Methoxyphenyl)-5-(4-pyridyl)-2,3-dihydroimidazo-[2,1-b]-thiazole] |  | 5.52 | 
COc1ccc(-c2c(-c3ccncc3)nc3n2CCS3)cc1 [Compound 26, 5-(4-Methoxyphenyl)-6-(4-pyridyl)-2,3-dihydroimidazole-[2,1-b]-thiazole] |  | ≤ 5.00 | 
